Test results as given in patent publication US20230095836A1, “SUBSTITUTED 5,6-DIPHENYL-3(2H)-PYRIDAZINONES FOR USE AS FUNGICIDES” (FMC Corporation, priority 2020, published 2023).

Tests used:
Assay type in all cases: in vivo
Alternaria solani = assay: Test F: test suspension sprayed on tomato seedlings, inoculated next day with Alternaria solani (tomato early blight); visual disease rating (100 = 100% disease control, 0 = no control; dash = not tested)
Procedure: (§1) The resulting test suspensions were then used in Tests A-F. The test suspension was sprayed to the point of run-off on tomato seedlings. The following day the seedlings were inoculated with a spore suspension of Alternaria solani (the causal agent of tomato early blight) and incubated in a saturated atmosphere at 27° C. for 48 h, and then moved to a growth chamber at 20° C. for 3 days, after which time visual disease ratings were made. A rating of 100 indicates 100% disease control and a rating of 0 indicates no disease control (relative to the controls). A dash (—) indicates the compound was not tested.

[1] = system: Puccinia recondita f. sp. tritici; assay: Test B: test solution sprayed on wheat seedlings, inoculated next day with Puccinia recondita f. sp. tritici (wheat leaf rust); disease rating (100 = 100% disease control, 0 = no control; dash = not tested)
Source text: The resulting test suspensions were then used in Tests A-F. The test solution was sprayed to the point of run-off on wheat seedlings. […] A rating of 100 indicates 100% disease control and a rating of 0 indicates no disease control (relative to the controls). A dash (—) indicates the compound was not tested.

Botrytis cinerea = assay: Test E: test suspension sprayed on tomato seedlings, inoculated next day with Botrytis cinerea (tomato Botrytis); visual disease rating (100 = 100% disease control, 0 = no control; dash = not tested)
Procedure: as §1, with “Botrytis cinerea” for “Alternaria solani”, “Botrytis)” for “early blight)”, “20°” for “27°”, “24°” for “20°”

Zymoseptoria tritici = assay: Test A: test solution sprayed on wheat seedlings, inoculated next day with Zymoseptoria tritici (wheat leaf blotch); disease rating (100 = 100% disease control, 0 = no control; dash = not tested)
Procedure: The resulting test suspensions were then used in Tests A-F. The test solution was sprayed to the point of run-off on wheat seedlings. The following day the seedlings were inoculated with a spore suspension of Zymoseptoria tritici (the causal agent of wheat leaf blotch) and incubated in a saturated atmosphere at 24° C. for 48 h, and then moved to a growth chamber at 20° C. for 17 days, after which time disease ratings were made. A rating of 100 indicates 100% disease control and a rating of 0 indicates no disease control (relative to the controls). A dash (—) indicates the compound was not tested.

[2] = system: Blumeria graminis f. sp. tritici; assay: Test C: test suspension sprayed on wheat seedlings, inoculated next day with Blumeria graminis f. sp. tritici (wheat powdery mildew); visual disease rating (100 = 100% disease control, 0 = no control; dash = not tested)
Procedure: as §1, with “on wheat” for “on tomato”, “spore dust” for “spore suspension”, “of Blumeria graminis f. sp. tritici, (also known as Erysiphe graminis f. sp. tritici, the” for “of Alternaria solani (the”, “of wheat powdery mildew)” for “of tomato early blight)”, “in” for “in a saturated atmosphere at 27° C. for 48 h, and then moved to”, “for 8” for “for 3”

Phakopsora pachyrhizi = assay: Test D: test solution sprayed on soybean seedlings, inoculated next day with Phakopsora pachyrhizi (Asian soybean rust); visual disease rating (100 = 100% disease control, 0 = no control; dash = not tested)
Source text: General protocol for preparing test suspensions for Tests A-F: the test compounds were first dissolved in acetone in an amount equal to 3% of the final volume and then suspended at the desired concentration (in ppm) in acetone and purified water (50/50 mix by volume) containing 250 ppm of the surfactant PEG400 (polyhydric alcohol esters). The resulting test suspensions were then used in Tests A-F.
The test solution was sprayed to the point of run-off on soybean seedlings. The following day the seedlings were inoculated with a spore suspension of Phakopsora pachyrhizi (the causal agent of Asian soybean rust) and incubated in a saturated atmosphere at 22° C. for 24 h and then moved to a growth chamber at 22° C. for 8 days, after which time visual disease ratings were made.
A rating of 100 indicates 100% disease control and a rating of 0 indicates no disease control (relative to the controls). A dash (—) indicates the compound was not tested.

SMILES	Test F disease control rating (Alternaria solani; 50 ppm)	Test B disease control rating ([1]; 50 ppm)	Test E disease control rating (Botrytis cinerea; 50 ppm)	Test A disease control rating (Zymoseptoria tritici; 50 ppm)	Test C disease control rating ([2]; 50 ppm)	Test D disease control rating (Phakopsora pachyrhizi; 50 ppm)	Test F disease control rating (Alternaria solani; 250 ppm)	Test B disease control rating ([1]; 250 ppm)	Test E disease control rating (Botrytis cinerea; 250 ppm)	Test A disease control rating (Zymoseptoria tritici; 250 ppm)	Test C disease control rating ([2]; 250 ppm)	Test D disease control rating (Phakopsora pachyrhizi; 250 ppm)	further results
CCn1nc(-c2cc(OC)cc(OC)c2Cl)c(-c2c(F)cccc2F)c(Cl)c1=O [Compound 9]	91%	100%	99%	100%	99%	99%	–	–	–	–	–	–	–
CCn1nc(-c2c(F)cccc2F)c(-c2cc(OC)cc(OC)c2)c(Cl)c1=O [Compound 10, 4-chloro-6-(2,6-difluorophenyl)-5-(3,5-dimethoxyphenyl)-2-ethyl-3(2H)-pyridazinone]	–	–	–	–	–	–	–	–	–	–	–	–	pest or weed control at 250 ppm (Alternaria solani; 250 ppm): 0%; pest or weed control at 250 ppm ([1]; 250 ppm): 0%; pest or weed control at 250 ppm (Botrytis cinerea; 250 ppm): 0%; pest or weed control at 250 ppm (Zymoseptoria tritici; 250 ppm): 0%; pest or weed control at 250 ppm ([2]; 250 ppm): 0%; pest or weed control at 250 ppm (Phakopsora pachyrhizi; 250 ppm): 0%
CCn1nc(-c2ccc(F)cc2Cl)c(-c2ccc(F)cc2Cl)cc1=O [Compound 11]	–	–	–	–	–	–	0%	9%	87%	2%	64%	0%	–
CCn1nc(-c2cc(OC)cc(OC)c2)c(-c2c(F)cccc2F)c(Br)c1=O [Compound 15]	0%	41%	68%	78%	13%	0%	–	–	–	–	–	–	–
CCn1nc(-c2cc(OC)cc(OC)c2Br)c(-c2c(F)cccc2F)c(Br)c1=O [Compound 16]	94%	97%	99%	99%	97%	84%	–	–	–	–	–	–	–
CCn1nc(-c2cc(OC)cc(OC)c2Br)c(-c2c(F)cccc2F)cc1=O [Compound 17]	0%	99%	99%	98%	94%	73%	–	–	–	–	–	–	–
COc1cc(OC)cc(-c2nn(C)c(=O)cc2-c2ccc(F)cc2Cl)c1 [Compound 18]	–	–	–	–	–	–	0%	98%	99%	99%	96%	0%	–
CCN1N=C(c2cc(OC)cc(OC)c2)C(c2ccc(F)cc2Cl)CC1=O (stereo not drawn) [Compound 19]	–	–	–	–	–	–	0%	0%	0%	0%	0%	0%	–
COc1cc(OC)cc(C2=NN(C)C(=O)CC2c2ccc(F)cc2Cl)c1 (stereo not drawn) [Compound 20]	–	–	–	–	–	–	0%	9%	31%	51%	21%	0%	–
COc1cc(OC)cc(-c2nn(C)c(=O)c(C)c2-c2c(F)cccc2F)c1 [Compound 21, 5-(2,6-difluorophenyl)-6-(3,5-dimethoxyphenyl)-2,4-dimethyl-3 (2H)-pyridazinone]	–	–	–	–	–	–	–	–	–	–	–	–	pest or weed control at 250 ppm (Alternaria solani; 250 ppm): 99%; pest or weed control at 250 ppm ([1]; 250 ppm): 100%; pest or weed control at 250 ppm (Botrytis cinerea; 250 ppm): 100%; pest or weed control at 250 ppm (Zymoseptoria tritici; 250 ppm): 100%; pest or weed control at 250 ppm ([2]; 250 ppm): 100%; pest or weed control at 250 ppm (Phakopsora pachyrhizi; 250 ppm): 100%
CCn1nc(-c2cc(OC)cc(OC)c2Cl)c(-c2c(F)cccc2F)c(C)c1=O [Compound 22]	79%	100%	100%	100%	98%	98%	–	–	–	–	–	–	–
CCn1nc(-c2c(F)cccc2F)c(-c2c(F)cccc2F)cc1=O [Compound 23]	–	–	–	–	–	–	0%	0%	0%	0%	0%	0%	–
CCn1nc(-c2ccc(F)cc2Cl)c(-c2ccc(F)cc2Cl)c(Cl)c1=O [Compound 24]	–	–	–	–	–	–	0%	80%	100%	100%	93%	0%	–
CCn1nc(-c2cc(OC)cc(OC)c2)c(-c2ccc(F)cc2Cl)cc1=O [Compound 26]	–	–	–	–	–	–	0%	55%	99%	12%	96%	0%	–
COc1cc(F)cc(-c2nn(C)c(=O)cc2-c2c(F)cccc2F)c1 [Compound 27]	–	–	–	–	–	–	0%	99%	96%	99%	97%	56%	–
Cn1nc(-c2cc(F)ccc2Cl)c(-c2c(F)cccc2F)cc1=O [Compound 28]	–	–	–	–	–	–	0%	100%	100%	100%	100%	0%	–
Cn1nc(-c2cccc(F)c2Cl)c(-c2c(F)cccc2F)cc1=O [Compound 29]	–	–	–	–	–	–	0%	98%	100%	100%	99%	25%	–
COc1cccc(-c2nn(C)c(=O)cc2-c2c(F)cccc2F)c1Cl [Compound 30]	–	–	–	–	–	–	41%	99%	100%	100%	84%	98%	–
COc1cc(OC)c([N+](=O)[O-])c(-c2nn(C)c(=O)cc2-c2c(F)cccc2F)c1Cl [Compound 31]	0%	9%	0%	0%	0%	0%	–	–	–	–	–	–	–
CCn1nc(-c2cc(OC)cc(OC)c2)c(-c2c(F)cccc2F)cc1=O [Compound 32]	–	–	–	–	–	–	0%	9%	80%	0%	29%	0%	–
CCc1c(-c2ccc(F)cc2Cl)c(-c2c(Cl)c(OC)cc(OC)c2Br)nn(C)c1=O [Compound 45]	0%	0%	0%	0%	69%	0%	–	–	–	–	–	–	–
CCc1c(-c2c(F)cccc2F)c(-c2c(F)cccc2F)nn(C)c1=O [Compound 46]	99%	98%	88%	99%	95%	0%	–	–	–	–	–	–	–
